A word on the EC50: it is the concentration at which the effect is half-maximal.

This is an account of results in article PMC10552892, “Ebselen oxide and derivatives are new allosteric HER2 inhibitors for HER2‐positive cancers” (Molecular Oncology, 2023).

For assay [1], the target named is T1, JMHER2/FERME interaction (biot-JMHER2 peptide and GST-FERME, N-terminal FERM domain of ezrin) (Homo sapiens, UniProt P04626).
T1 construct: purchased Proteogenix
As to the kind of experiment: AlphaScreen competition of HER2 juxtamembrane peptide / ezrin FERM domain interaction. Type of assay: binding. As to conditions: for Inhibition of HER2-FERME interaction, % / EC50: AlphaScreen, 20 h; for Inhibition of HER2-FERME interaction, %: compound 0–50 μM, biot-JMHER2 5 nM; for EC50: read-out: EC50, μM (inhibition of HER2-FERME interaction); for Competition with HER2/FERM interaction / binding affinity for JMHER2: compared to ebselen oxide. The protocol:
Biotinylated peptide derived from HER2 cytosolic juxtamembrane region (JMHER2, […] ) has been synthesized by Proteogenix (Schiltigheim, France). The binding reaction was described previously. Briefly, white 384‐well Optiplates (PerkinElmer, Whalham, MA, USA) were used to prepare GST‐FERME and biotinylated peptide in a binding buffer (PBS, pH 7.4, 5 mM MgCl2, and 0.02% CHAPS). GST‐FERME was incubated with biotinylated‐HER2 for 30 min at room temperature. AlphaScreen® Streptavidin Donor beads (20 μg·mL^−1) and Glutathione AlphaLISA® Acceptor Beads (20 μg·mL^−1) were added to the wells for overnight incubation in the dark and at room temperature. Light signal was detected with the EnVision® multilabel plate reader (PerkinElmer).
Ebselen came out as an interesting hit. Ebselen is a synthetic organoselenium compound with the anti‐inflammatory and antioxidant property that has been evaluated in clinical trials for ischemic stroke and acute hearing loss. However, in vivo, ebselen rapidly reacts with peroxynitrite to form ebselen oxide. […] In addition, using surface plasmon resonance (SPR), we confirmed that both compounds could directly bind to JMHER2 (Fig. 1E,F). […] The slight decrease in HER2 expression was not significant. To examine whether HER2 inhibition by ebselen oxide was dependent on JMHER2/FERME interaction, we transfected HBMEC cells with a previously described glycoprotein D‐tagged HER2 form mutated on the critical amino acids involved in ERM binding (gD‐HER2‐EBM*).
Background: Alpha assays give light when donor and acceptor beads are brought close together.

The target of a further assay is T2, HER2 (pY1248) in SKBR3 (Homo sapiens, UniProt P04626).
T2 construct: host or cells: SKBR3
T2 sequence (P04626 23-1255): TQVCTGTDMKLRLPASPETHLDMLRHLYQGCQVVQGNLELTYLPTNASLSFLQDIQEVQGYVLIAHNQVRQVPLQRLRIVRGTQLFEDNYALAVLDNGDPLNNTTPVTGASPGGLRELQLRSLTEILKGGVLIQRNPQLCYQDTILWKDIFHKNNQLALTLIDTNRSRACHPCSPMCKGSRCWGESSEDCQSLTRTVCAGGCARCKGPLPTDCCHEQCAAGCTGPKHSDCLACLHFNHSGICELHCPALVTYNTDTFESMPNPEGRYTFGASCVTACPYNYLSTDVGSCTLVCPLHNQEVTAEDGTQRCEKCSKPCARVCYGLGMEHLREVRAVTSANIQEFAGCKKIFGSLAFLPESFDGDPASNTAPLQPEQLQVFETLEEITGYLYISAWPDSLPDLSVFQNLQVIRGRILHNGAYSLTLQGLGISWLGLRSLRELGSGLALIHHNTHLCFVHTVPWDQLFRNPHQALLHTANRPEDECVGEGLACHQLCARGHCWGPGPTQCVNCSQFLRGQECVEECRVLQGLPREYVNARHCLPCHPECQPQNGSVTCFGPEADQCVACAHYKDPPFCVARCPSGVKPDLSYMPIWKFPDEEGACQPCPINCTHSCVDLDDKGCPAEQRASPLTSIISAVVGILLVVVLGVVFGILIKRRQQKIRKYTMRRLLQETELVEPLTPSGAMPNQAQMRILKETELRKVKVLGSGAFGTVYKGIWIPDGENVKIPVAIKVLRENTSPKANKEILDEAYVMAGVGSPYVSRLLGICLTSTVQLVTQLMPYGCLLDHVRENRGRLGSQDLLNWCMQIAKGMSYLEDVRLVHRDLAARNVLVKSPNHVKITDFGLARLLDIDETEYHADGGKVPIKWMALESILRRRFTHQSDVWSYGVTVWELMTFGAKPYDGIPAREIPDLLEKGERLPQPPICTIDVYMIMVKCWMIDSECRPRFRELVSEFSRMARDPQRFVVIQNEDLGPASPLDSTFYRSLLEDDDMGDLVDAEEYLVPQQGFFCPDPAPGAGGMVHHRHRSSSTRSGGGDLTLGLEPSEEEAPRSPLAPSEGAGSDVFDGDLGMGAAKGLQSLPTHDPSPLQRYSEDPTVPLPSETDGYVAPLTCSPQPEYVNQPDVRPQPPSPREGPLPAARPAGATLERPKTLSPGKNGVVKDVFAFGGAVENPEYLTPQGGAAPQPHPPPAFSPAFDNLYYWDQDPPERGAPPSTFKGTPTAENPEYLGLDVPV
Nature of the assay: HER2 activation (pY1248-HER2) in SKBR3 cells, western/dot blot. It counts as cell-based. Details: Inhibition of HER2 activation / HER2 inhibition, %: concentration or dose not given beside the values. Particulars: for Inhibition of HER2 activation/activity: HER2+ breast cancer cells (SKBR3 in Fig. S1); for HER2 inhibition, % / EC50: Table 1, HER2+ breast cancer cells (ebselen oxide value equals SKBR3 48 h); for EC50: read-out: EC50, μM (HER2 inhibition).

Assay [2] deals with HER2+ breast cancer cells. As to the kind of experiment: HER2-dependent (anchorage-dependent) proliferation, Table 1. It counts as cell-based, human. From the text: Given the promising effects of ebselen oxide, we then evaluated several structurally related compounds in order to define the structural determinants essential for HER2 binding and inhibition. […] These observations allowed us to define a pharmacophore of ebselen derivatives required for HER2 inhibition where atoms in position Y and R (shown in red in structure) can be modified as followed: Y is either a S or a Se=O and R is either H or Cl or Me but not OMe or CF3 (Table 1).

A further assay concerns the target T3, HER2 (pY1248) in NCI-N87 (Homo sapiens, UniProt P04626).
T3 construct: host or cells: NCI-N87
Nature of the assay: HER2 activation in NCI-N87 gastric cancer cells, western blot. Type of assay: cell-based. As to the method:
(A-C) HER2-positive […] (SKBR3, A; NCI-N87, B; BT474, C) treated or not with Ebselen
indicated, were analyzed by western blot to evaluate HER2 activation status using antibodies directed
Proliferation was assessed by Incucyte during 4 days.

Assay [3] has as its system NCI-N87. Nature of the assay: Proliferation of NCI-N87 cells. Type of assay: cell-based, human. Particulars: ebselen oxide 7–10 μM, AG1478 5 μM. The protocol:
(§1) Fig. 3 Ebselen oxide inhibits HER2 activation and HER2‐dependent proliferation in gastric and ovarian HER2^+ cancer cells. (A) HER2‐positive NCI‐87 gastric cancer cells were treated with ebselen oxide (0–20 μM) for 24 h, lysed, and analyzed by western blot using anti‐pY1248‐HER2, HER2, and β‐tubulin antibodies. A representative western blot is shown out of 4 independent experiments. (B) HER2‐positive SKOV3 ovarian cancer cells were treated with ebselen oxide (0–10 μM) for 24 h, lysed, and analyzed by western blot using anti‐pY1248‐HER2, HER2, and ezrin antibodies. A western blot is shown (n = 1). (C, D) Proliferation curves of NCI‐N87 gastric (C) or SKOV3 ovarian (D) cancer cells treated with vehicle or 7–10 μM ebselen oxide measured by MTT assay. Data are mean ± SEM (n = 9–12) of three independent experiments.
Supplementary figure 4: NCI-N87 and SKOV3 cancer cell lines are addicted to the HER2 pathway
(A) NCI-N87 cells were treated (+) or not (-) with a non-specific HER2 inhibitor AG1478 (5 µM). Whole cell lysates were analyzed by western blot with pY1248 HER2, HER2 and pERK antibodies.
(B) SKOV3 cells were treated (+) or not (-) with a non-specific HER2 inhibitor AG1478 (5 µM). Whole cell lysates were analyzed by western blot with pY1248 HER2, HER2, pERK or beta-tubulin antibodies.
(C) Proliferation curves of NCI-N87 treated or not with AG1478 (5 µM). Data are mean ± sem (n=4-6). 2- […]

For another assay, the system named is SKOV3. Nature of the assay: Proliferation of SKOV3 cells. Type of assay: cell-based, human. As to conditions: ebselen oxide 7–10 μM, AG1478 5 μM.
In a further assay the target is T4, HER2 (pY1248) in SKOV3 (Homo sapiens, UniProt P04626).
T4 construct: host or cells: SKOV3
T4 sequence (P04626 23-1255): as above
As to the kind of experiment: HER2 activation in SKOV3 ovarian cancer cells, western blot. It counts as cell-based. Particulars: ebselen oxide 0–10 μM 24 h, AG1478 5 μM. As to the method:
Human bone marrow endothelial cells (HBMECs) kindly provided by Dr. B. Weksler (Weill Medical College of Cornell University, NY) were cultured as described previously. The human breast cancer cell lines [SKBR3 (RRID:CVCL_0033), BT474 (RRID:CVCL_0179), and MDA‐MB‐231 (RRID:CVCL_0062)], the human gastric [NCI‐87 (RRID:CVCL_1603)] and ovarian [SKOV3 (RRID:CVCL_0532)] cancer cell lines were obtained from the American Type Culture Collection (Manassas, VA) and were maintained in DMEM containing 10% FBS. All cell lines were cultured under 5% CO2 at 37 °C. HBMECs were transfected using Amaxa Inc nucleofector system (Kit V and U015 program). […]
as §1, with “A representative western blot is shown out of 4 independent experiments.” left out, “A western blot is shown (n = 1).” left out, “Data are mean ± SEM (n = 9–12) of three independent experiments.” left out
For orientation: A western blot detects proteins with antibodies after separation by electrophoresis.

Assay [4] concerns NCI-N87. Nature of the assay: Anchorage-independent growth (spheroid assay, ULA plates), NCI-N87. Type of assay: cell-based, human. Particulars: ebselen oxide 10 μM, lapatinib 10 nM, trastuzumab 10 μg·mL−1, alone or combined.
Experimental: 5.10^3 cells/24‐well were seeded in a complete medium in ULA plates (Corning® Costar® (Corning, NY, USA) C LS3473‐24EA) in the presence of indicated compounds. Spheroids were imaged 6–8 days later with a phase‐contrast microscope, and their areas were measured using IMAGEJ software.
Proliferation was assessed overtime by Incucyte during 4 days. Data are mean ± SD (n = 8–12) of a representative experiment out of 4 (A), 3 (B), or 2 (C) independent experiments. One‐way ANOVA followed by Sidak multiple comparison test, (*, compared with Vehicle; ° and #, respectively, compared with lapatinib 10 and 1000 nM) ***P < 0.001, ****P < 0.0001. […] Proliferation was assessed by Incucyte during 4 days. Data are mean ± SD (n = 8–12) of a representative experiment out of two independent experiments. […] Images of a representative experiment out of 3 (G) or 4 (H) independent experiments and quantification of the colony total area are shown where data are mean ± SEM. One‐way ANOVA followed by multiple comparison test, *P < 0.05, **P < 0.01. Scale bars are 100 μM.
Assay [5] concerns NCI-N87. As to the kind of experiment: Incucyte proliferation, single agents and combinations, NCI-N87. Particulars: Homo sapiens, NCI-N87, 96 h; read-out: Reduction/inhibition of cell proliferation. It counts as cell-based. The protocol:
(§2) (A–C) Proliferation curves of HER2‐positive (SKBR3, A; BT474, B; NCI‐N87, C) cancer cell lines treated or not with ebselen oxide (10 μM), lapatinib (10–1000 nM), or combination of these agents, as indicated. Proliferation was assessed overtime by Incucyte during 4 days. Data are mean ± SD (n = 8–12) of a representative experiment out of 4 (A), 3 (B), or 2 (C) independent experiments. […] Proliferation was assessed by Incucyte during 4 days. […] Scale bars are […].

The next assay has as its system SKBR3. As to the kind of experiment: Incucyte proliferation, single agents and combinations, SKBR3. As to conditions: Homo sapiens, SK-BR-3, 96 h; read-out: Reduction/inhibition of cell proliferation. It counts as cell-based. The protocol: as §2
Another assay concerns BT474. As to the kind of experiment: Incucyte proliferation, single agents and combinations, BT474. Type of assay: cell-based. As to conditions: Homo sapiens, BT-474, 96 h; read-out: Reduction/inhibition of cell proliferation. As to the method:
as §2

Structures are written as SMILES.

T3 sequence (P04626 23-1255): as above

With `O=c1c2ccccc2[s+]([O-])n1-c1ccc(Cl)cc1` (stereo not drawn) [Analog 8, 2‐(4‐chlorophenyl)‐1‐oxo‐1,2‐benzothiazol‐3‐one], in [1], the “Inhibition of HER2-FERME interaction, %” value is on record as 100%; the 50% effective concentration (EC50) was determined as 95.1 µM; the “Competition with HER2/FERM interaction / binding affinity for JMHER2” value was “drastically reduced”.

On to `Cc1ccc(-n2c(=O)c3ccccc3[s+]2[O-])cc1` (stereo not drawn) [Analog 6, 2‐(4‐Methylphenyl)‐1‐oxo‐1,2‐benzothiazol‐3‐one], for which, in assay [1], the “Inhibition of HER2-FERME interaction, %” value was 43.6% and the EC50 was found to be 2.53 µM. Besides, on HER2 (pY1248) in SKBR3, the “Inhibition of HER2 activation/activity” value is “no or low inhibition” and the “HER2 inhibition, %” value was 0.2%. The “Effect on proliferation of HER2+ breast cancer cells” value in assay [2] was “no or low inhibition”.

For the compound `Cc1ccc(-n2sc3ccccc3c2=O)cc1` [Analog 1, 2‐(4‐methylphenyl)‐1,2‐benzisothiazol‐3(2H)‐one], in assay [1], the “Inhibition of HER2-FERME interaction, %” value is reported as 45.0%; the 50% effective concentration (EC50) is 0.716 µM; the “Competition with HER2/FERM interaction / binding affinity for JMHER2” value was “competed”. For the same compound, at HER2 (pY1248) in SKBR3, the “Inhibition of HER2 activation/activity” value is on record as “inhibited”; the “HER2 inhibition, %” value worked out at 65.0%; the EC50 stood at 39.8 µM. In addition, in [2], the “Effect on proliferation of HER2+ breast cancer cells” value is on record as “reduced”.

As to `O=C1c2ccccc2C(=O)N1c1ccccc1` [Analog 4, N‐phenylphtalimide], in assay [1], the “Inhibition of HER2-FERME interaction, %” value was determined as 47.3%; the EC50 is 0.003 µM; the “Competition with HER2/FERM interaction / binding affinity for JMHER2” value is reported as “greater binding affinity”. For the same compound, on HER2 (pY1248) in SKBR3, the “Inhibition of HER2 activation/activity” value is on record as “no or low inhibition” and the “HER2 inhibition, %” value turned out to be 0.0%. In addition, the “Effect on proliferation of HER2+ breast cancer cells” value in [2] is given as “no or low inhibition”.

Take `O=c1c2ccccc2sn1-c1ccc(C(F)(F)F)cc1` [Analog 7, 2‐[4‐(trifluoromethyl)phenyl]‐1,2‐benzothiazol‐3‐one]: in assay [1], the “Inhibition of HER2-FERME interaction, %” value is on record as 100%; the EC50 was determined as 97 µM; the “Competition with HER2/FERM interaction / binding affinity for JMHER2” value was “drastically reduced”.

Turning to `COc1cc2ncnc(Nc3cccc(Cl)c3)c2cc1OC` [AG1478, Tyrphostin AG1478, reference compound], the “Effect on HER2 activation” value is listed as “decrease” on HER2 (pY1248) in NCI-N87 (ebselen oxide 0–20 μM 24 h, AG1478 5 μM) and “decrease” at HER2 (pY1248) in SKOV3. In addition, the “Effect on proliferation” value with NCI-N87 [3] and in the assay on SKOV3 was “decrease” each time.

As to `CC(C)c1ccc(N2Cc3ccccc3C2=O)cc1` [Analog 5, 2‐(4‐isopropyl phenyl)‐1‐isoindolinone], in assay [1], the “Inhibition of HER2-FERME interaction, %” value stood at 49.0%; the concentration giving a half-maximal response (EC50) amounted to 0.255 µM; the “Competition with HER2/FERM interaction / binding affinity for JMHER2” value is “greater binding affinity”. Besides, on HER2 (pY1248) in SKBR3, the “Inhibition of HER2 activation/activity” value is “no or low inhibition”; the “HER2 inhibition, %” value is listed as 16.3%; the EC50 was 2 µM. Also, the “Effect on proliferation of HER2+ breast cancer cells” value in assay [2] was “no or low inhibition”.

As to `O=c1c2ccccc2sn1-c1ccc(Cl)cc1` [Analog 2, 2‐(4‐chlorophenyl)‐1,2‐benzisothiazol‐3(2H)‐one], in [1], the “Inhibition of HER2-FERME interaction, %” value is recorded as 40.4%; the 50% effective concentration (EC50) came out at 1.08 µM; the “Competition with HER2/FERM interaction / binding affinity for JMHER2” value is listed as “competed”. Besides, at HER2 (pY1248) in SKBR3, the “Inhibition of HER2 activation/activity” value was “inhibited”; the “HER2 inhibition, %” value is reported as 75.4%; the 50% effective concentration (EC50) was 41.7 µM. For the same compound, the “Effect on proliferation of HER2+ breast cancer cells” value in assay [2] is “reduced”.

For `CS(=O)(=O)CCNCc1ccc(-c2ccc3ncnc(Nc4ccc(OCc5cccc(F)c5)c(Cl)c4)c3c2)o1` [lapatinib, Lapatinib ditosylate, reference compound], the “Effect on HER2 activation, single agents and combination” value was “partially decreased” on HER2 (pY1248) in NCI-N87 (ebselen oxide 10 μM, lapatinib 10 nM) and “partially decreased” at HER2 (pY1248) in SKBR3 (SKBR3, ebselen oxide 10 μM, lapatinib 10 nM). Moreover, the “Reduction of anchorage-independent growth (spheroid assay)” value in the assay on NCI-N87 [4] came to 35%. Further, the inhibition at 0.01 µM worked out at 53% in the assay with NCI-N87 [5], 39% with SKBR3 and 18% in the assay on BT474.
